The source of these data is patent US9409914B2, “Triazolo[4,5-d]pyrimidine derivatives” (Merck Patent GmbH, priority 2012, dated 2016).

The target of experiment [1] is T1, GCN2 (Homo sapiens, UniProt Q9P2K8). As to the kind of experiment: Cellular assay for GCN2 activity (phospho-eIF2alpha immunocytochemistry, tryptophanol-stimulated U2OS cells). It counts as cell-based. The arrangement: endogenous in cells; host or cells: U2OS. The following applies: 2 hours compound, then 600 μM tryptophanol 30 minutes, anti-phospho-eIF2alpha, read-out: IC50 GCN2 (cell assay). The protocol: Cellular Assay for the Determination of Compound Activities
Human U2OS cells (2000 cells/well) are seeded into 384-well plates and incubated for 20 hours.
The next day, the cells are treated with the test compounds and incubated for 2 hours. Then, tryptophanol, at a final concentration of 600 μM, is added to the cells and those are incubated for 30 minutes.
The analysis of cellular GCN2 activities is done by immunocytochemistry. Briefly, cells are fixated on the well surfaces by formaldehyde and permeabilised with Triton X-100. The primary antibody (anti-phospho-eIF2alpha (Ser51, Cell Signalling Technology, #3398) is incubated on the treated cells for 20 hours, followed by a 60 minutes incubation of the secondary antibody (anti-rabbit-IgG-Alexa 488; Molecular Probes #11008). The analysis and quantification of phosphorylated GCN2 is done by scanning the plates in the Acumen Explorer system (TTPLabtech). The obtained data are normalised against the untreated control wells (DMSO only) and expressed as % effect values. The determination of IC50 values is done by using the Graph Pad Prism software.
Target sequence in this assay (Q9P2K8 whole entry): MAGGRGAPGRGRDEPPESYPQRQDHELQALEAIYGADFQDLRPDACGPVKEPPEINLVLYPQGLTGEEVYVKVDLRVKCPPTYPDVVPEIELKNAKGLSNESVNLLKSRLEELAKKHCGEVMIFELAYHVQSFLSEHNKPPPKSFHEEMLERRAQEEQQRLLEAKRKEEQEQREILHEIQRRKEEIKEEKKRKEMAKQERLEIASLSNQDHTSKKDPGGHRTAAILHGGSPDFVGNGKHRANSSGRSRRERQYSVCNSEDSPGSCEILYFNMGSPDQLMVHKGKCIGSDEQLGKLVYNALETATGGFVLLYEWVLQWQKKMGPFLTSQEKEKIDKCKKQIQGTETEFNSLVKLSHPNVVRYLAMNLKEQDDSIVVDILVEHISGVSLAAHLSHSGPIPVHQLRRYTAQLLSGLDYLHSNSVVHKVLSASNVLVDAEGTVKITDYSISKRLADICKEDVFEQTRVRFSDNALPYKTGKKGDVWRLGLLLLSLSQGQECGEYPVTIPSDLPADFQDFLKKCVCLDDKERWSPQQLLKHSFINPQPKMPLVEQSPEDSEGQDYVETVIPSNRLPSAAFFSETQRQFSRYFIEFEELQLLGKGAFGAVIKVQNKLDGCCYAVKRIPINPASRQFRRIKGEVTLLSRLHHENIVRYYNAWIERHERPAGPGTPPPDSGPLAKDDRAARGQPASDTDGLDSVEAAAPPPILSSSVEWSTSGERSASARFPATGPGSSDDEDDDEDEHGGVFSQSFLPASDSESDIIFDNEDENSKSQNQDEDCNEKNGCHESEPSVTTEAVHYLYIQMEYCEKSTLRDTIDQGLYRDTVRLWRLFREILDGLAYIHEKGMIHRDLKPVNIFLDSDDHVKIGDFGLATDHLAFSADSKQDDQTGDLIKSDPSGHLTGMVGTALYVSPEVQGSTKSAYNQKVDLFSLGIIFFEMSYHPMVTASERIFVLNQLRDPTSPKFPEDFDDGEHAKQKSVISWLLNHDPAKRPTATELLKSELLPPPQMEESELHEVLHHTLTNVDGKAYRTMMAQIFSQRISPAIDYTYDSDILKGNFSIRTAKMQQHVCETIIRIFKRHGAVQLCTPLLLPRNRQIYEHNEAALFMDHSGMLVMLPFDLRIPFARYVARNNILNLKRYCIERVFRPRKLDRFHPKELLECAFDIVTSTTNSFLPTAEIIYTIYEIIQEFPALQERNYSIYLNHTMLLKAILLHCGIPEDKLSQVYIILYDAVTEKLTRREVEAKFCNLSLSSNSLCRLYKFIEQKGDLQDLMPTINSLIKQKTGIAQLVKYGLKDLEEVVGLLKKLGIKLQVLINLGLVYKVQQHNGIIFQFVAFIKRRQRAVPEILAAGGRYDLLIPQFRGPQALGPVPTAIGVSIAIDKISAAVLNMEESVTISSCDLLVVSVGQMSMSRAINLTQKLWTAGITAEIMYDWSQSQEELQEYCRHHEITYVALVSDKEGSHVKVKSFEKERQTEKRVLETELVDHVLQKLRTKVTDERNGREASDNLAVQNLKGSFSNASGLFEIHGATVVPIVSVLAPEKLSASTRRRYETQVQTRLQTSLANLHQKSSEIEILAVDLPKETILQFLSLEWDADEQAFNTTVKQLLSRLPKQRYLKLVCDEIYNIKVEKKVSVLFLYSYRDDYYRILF

Experiment [2] concerns the target T1, GCN2. The experiment is described as follows: GCN2 enzyme assay (TR-FRET Lanthascreen, phosphorylation of GFP-eIF2alpha). It counts as biochemical. The following applies: 10 μM ATP, 80 nM GFP-eIF2alpha, 30 nM GCN2, room temperature. The method, boiled down:
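Two-step TR-FRET (Lanthascreen) format: GCN2 incubated at room temperature with 10 μM ATP and 80 nM GFP-labelled eIF2alpha, then stopped with EDTA. Phospho-eIF2alpha detected by Tb-labelled antibody, excitation 340 nm; activity taken from the 520/495 nm emission ratio.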
Target sequence in this assay (Q9P2K8 whole entry, species assumed): as the sequence (Q9P2K8 whole entry) above

Regarding `COc1ccc(-n2nnc3cnc(Nc4cnn(C5CCN(C)CC5)c4)nc32)nc1` [Compound A77, [3-(5-methoxy-pyridin-2-yl)-3H-[1,2,3]triazolo[4,5-d]pyrimidin-5-yl]-[1-(1-methyl-piperidin-4-yl)-1H-pyrazol-4-yl]-amine], the IC50 is 0.3 to 3 µM at GCN2 [1] and under 0.3 µM on GCN2 [2].
The matching figures for `CN1CCC(n2cc(Nc3ncc4nnn(-c5ccccc5)c4n3)cn2)CC1` [Compound A11, [1-(1-methyl-piperidin-4-yl)-1H-pyrazol-4-yl]-(3-phenyl-3H-[1,2,3]triazolo[4,5-d]pyrimidin-5-yl)-amine]: 0.3 to 3 µM and 0.3 to 3 µM.
The matching figures for `CN1CCC(n2cc(Nc3ncc4nnn(-c5ccc(F)c(Cl)c5)c4n3)cn2)CC1` [Compound A111, [3-(3-chloro-4-fluoro-phenyl)-3H-[1,2,3]triazolo[4,5-d]pyrimidin-5-yl]-[1-(1-methyl-piperidin-4-yl)-1H-pyrazol-4-yl]-amine]: 3 to 50 µM and 0.3 to 3 µM.
`CCOc1ccc(-n2nnc3cnc(Nc4cnn(CCCOC)c4)nc32)cc1` [Compound A49, [3-(4-ethoxy-phenyl)-3H-[1,2,3]triazolo[4,5-d]pyrimidin-5-yl]-[1-(3-methoxy-propyl)-1H-pyrazol-4-yl]-amine]: the values for the IC50 on GCN2 [1] and against GCN2 [2] were 3 to 50 µM and under 0.3 µM, respectively.
The matching figures for `COCCN1CCC(n2cc(Nc3ncc4nnn(-c5ccnc(OC)c5)c4n3)cn2)CC1` [Compound A76, {1-[1-(2-methoxy-ethyl)-piperidin-4-yl]-1H-pyrazol-4-yl}-[3-(2-methoxy-pyridin-4-yl)-3H-[1,2,3]triazolo[4,5-d]pyrimidin-5-yl]-amine]: 3 to 50 µM and under 0.3 µM.
The matching figures for `CC1(C)C(=O)Nc2cc(-n3nnc4cnc(Nc5cnn(C6CCOCC6)c5)nc43)ccc21` [Compound A85, 3,3-dimethyl-6-{5-[1-(tetrahydro-pyran-4-yl)-1H-pyrazol-4-ylamino]-[1,2,3]triazolo[4,5-d]pyrimidin-3-yl}-1,3-dihydro-indol-2-one]: 0.3 to 3 µM and under 0.3 µM.
For `COCCOc1ccc(-n2nnc3cnc(Nc4cnn([C@H]5CC[C@H](O)CC5)c4)nc32)cc1` [Compound A108, 4-(4-{3-[4-(2-methoxy-ethoxy)-phenyl]-3H-[1,2,3]triazolo[4,5-d]pyrimidin-5-ylamino}-pyrazol-1-yl)-cyclohexanol] the same measures were 3 to 50 µM and under 0.3 µM.
Take `c1cnc2ccc(-n3nnc4cnc(Nc5cnn(C6CCOCC6)c5)nc43)cc2c1` [Compound A82, (3-quinolin-6-yl-3H-[1,2,3]triazolo[4,5-d]pyrimidin-5-yl)-[1-(tetrahydro-pyran-4-yl)-1H-pyrazol-4-yl]-amine]: the half-maximal inhibitory concentration (IC50) on GCN2 [1] and against GCN2 [2] was 0.3 to 3 µM throughout.
Turning to `COCCOc1ccc(-n2nnc3cnc(Nc4cnn([C@H]5CC[C@@H](O)CC5)c4)nc32)cc1` [Compound A107, 4-(4-{3-[4-(2-methoxy-ethoxy)-phenyl]-3H-[1,2,3]triazolo[4,5-d]pyrimidin-5-ylamino}-pyrazol-1-yl)-cyclohexanol], the IC50 is 0.3 to 3 µM on GCN2 [1] and under 0.3 µM on GCN2 [2].
The matching figures for `c1nn(C2CCOCC2)cc1Nc1ncc2nnn(-c3ccc4cn[nH]c4c3)c2n1` [Compound A92, [3-(1H-indazol-6-yl)-3H-[1,2,3]triazolo[4,5-d]pyrimidin-5-yl]-[1-(tetrahydro-pyran-4-yl)-1H-pyrazol-4-yl]-amine]: under 0.3 µM and under 0.3 µM.
The matching figures for `c1ccc(-n2nnc3cnc(Nc4cn[nH]c4)nc32)cc1` [Compound A4, (3-phenyl-3H-[1,2,3]triazolo[4,5-d]pyrimidin-5-yl)-(1H-pyrazol-4-yl)-amine]: 3 to 50 µM and under 0.3 µM.
For `NC(=O)c1ccc(-n2nnc3cnc(Nc4cnn(C5CCOCC5)c4)nc32)cc1` [Compound A80, 4-{5-[1-(tetrahydro-pyran-4-yl)-1H-pyrazol-4-ylamino]-[1,2,3]triazolo[4,5-d]pyrimidin-3-yl}-benzamide] the same measures were under 0.3 µM and 0.3 to 3 µM.
For `CN1CCC(n2cc(Nc3ncc4nnn(-c5ccc(C(N)=O)cc5)c4n3)cn2)CC1` [Compound A69, 4-{5-[1-(1-methyl-piperidin-4-yl)-1H-pyrazol-4-ylamino]-[1,2,3]triazolo[4,5-d]pyrimidin-3-yl}-benzamide], the IC50 was 0.3 to 3 µM at GCN2 [1] and under 0.3 µM against GCN2 [2].
As to `CN1CCC(n2cc(Nc3ncc4nnn(-c5ccc(F)c(F)c5)c4n3)cn2)CC1` [Compound A120, [3-(3,4-difluoro-phenyl)-3H-[1,2,3]triazolo[4,5-d]pyrimidin-5-yl]-[1-(1-methyl-piperidin-4-yl)-1H-pyrazol-4-yl]-amine], the concentration for half-maximal inhibition (IC50) at GCN2 [1] fell in the range of 3 to 50 µM; on GCN2 [2], 0.3 to 3 µM.
The matching figures for `CN1CCC(n2cc(Nc3ncc4nnn(-c5ccc6nccnc6c5)c4n3)cn2)CC1` [Compound A101, [1-(1-methyl-piperidin-4-yl)-1H-pyrazol-4-yl]-(3-quinoxalin-6-yl-3H-[1,2,3]triazolo[4,5-d]pyrimidin-5-yl)-amine]: 3 to 50 µM and under 0.3 µM.
The matching figures for `COCCOc1ccc(-n2nnc3cnc(Nc4cnn(C)c4)nc32)cc1` [Compound A56, {3-[4-(2-methoxy-ethoxy)-phenyl]-3H-[1,2,3]triazolo[4,5-d]pyrimidin-5-yl}-(1-methyl-1H-pyrazol-4-yl)-amine]: 0.3 to 3 µM and under 0.3 µM.
`CN1CCC(n2cc(Nc3ncc4nnn(-c5cccc(F)c5)c4n3)cn2)CC1` [Compound A118, [3-(3-fluoro-phenyl)-3H-[1,2,3]triazolo[4,5-d]pyrimidin-5-yl]-[1-(1-methyl-piperidin-4-yl)-1H-pyrazol-4-yl]-amine]: the IC50 was 0.3 to 3 µM at GCN2 [1] and under 0.3 µM against GCN2 [2].
`CN1CCC(n2cc(Nc3ncc4nnn(-c5ccc6[nH]c(C(F)(F)F)nc6c5)c4n3)cn2)CC1` [Compound A95, [1-(1-methyl-piperidin-4-yl)-1H-pyrazol-4-yl]-[3-(2-trifluoromethyl-1H-benzoimidazol-5-yl)-3H-[1,2,3]triazolo[4,5-d]pyrimidin-5-yl]-amine]: the IC50 at GCN2 [1] was 3 to 50 µM; against GCN2 [2], under 0.3 µM.
For `COc1ccc(-n2nnc3cnc(Nc4cnn(-c5ccccc5)c4)nc32)cc1` [Compound A1, [3-(4-methoxy-phenyl)-3H-[1,2,3]triazolo[4,5-d]pyrimidin-5-yl]-(1-phenyl-1H-pyrazol-4-yl)-amine] the same measures were 3 to 50 µM and 0.3 to 3 µM.
As to `CCOc1ccc(-n2nnc3cnc(Nc4cnn(C5CCN(C)CC5)c4)nc32)cc1` [Compound A28, 3-(4-ethoxyphenyl)-N-[1-(1-methyl-4-piperidyl)pyrazol-4-yl]triazolo[4,5-d]pyrimidin-5-amine], the half-inhibitory concentration (IC50) was 0.3 to 3 µM on GCN2 [1] and under 0.3 µM against GCN2 [2].
For the compound `COc1cc(-n2nnc3cnc(Nc4cnn(C5CCN(C)CC5)c4)nc32)ccn1` [Compound A30, 3-(2-methoxy-4-pyridyl)-N-[1-(1-methyl-4-piperidyl)pyrazol-4-yl]triazolo[4,5-d]pyrimidin-5-amine], the results for the IC50 on GCN2 [1] and at GCN2 [2] were 0.3 to 3 µM and under 0.3 µM, respectively.
The matching figures for `CN1CCC(n2cc(Nc3ncc4nnn(-c5ccc(Cl)c(F)c5)c4n3)cn2)CC1` [Compound A44, [3-(4-chloro-3-fluoro-phenyl)-3H-[1,2,3]triazolo[4,5-d]pyrimidin-5-yl]-[1-(1-methyl-piperidin-4-yl)-1H-pyrazol-4-yl]-amine]: 0.3 to 3 µM and under 0.3 µM.
The matching figures for `CC(C)(OCCO)c1ccc(-n2nnc3cnc(Nc4cnn(C5CCOCC5)c4)nc32)cc1` [Compound A130, 2-[1-methyl-1-(4-{5-[1-(tetrahydro-pyran-4-yl)-1H-pyrazol-4-ylamino]-[1,2,3]triazolo[4,5-d]pyrimidin-3-yl}-phenyl)-ethoxy]-ethanol]: 0.3 to 3 µM and under 0.3 µM.
For `OC[C@@H]1C[C@H]1Cn1cc(Nc2ncc3nnn(-c4ccc(Cl)c(F)c4)c3n2)cn1` (relative stereo) [Compound A98, ((trans)-2-{4-[3-(4-chloro-3-fluoro-phenyl)-3H-[1,2,3]triazolo[4,5-d]pyrimidin-5-ylamino]-pyrazol-1-ylmethyl}-cyclopropyl)-methanol] the same measures were 0.3 to 3 µM and under 0.3 µM.
`CCn1cc(Nc2ncc3nnn(-c4cccc(C(N)=O)c4)c3n2)cn1` [Compound A68, 3-[5-(1-ethyl-1H-pyrazol-4-ylamino)-[1,2,3]triazolo[4,5-d]pyrimidin-3-yl]-benzamide]: the figures for the IC50 at GCN2 [1] and against GCN2 [2] were 3 to 50 µM and 0.3 to 3 µM, respectively.
For `CCn1cc(Nc2ncc3nnn(-c4ccc5[nH]ncc5c4)c3n2)cn1` [Compound A91, (1-ethyl-1H-pyrazol-4-yl)-[3-(1H-indazol-5-yl)-3H-[1,2,3]triazolo[4,5-d]pyrimidin-5-yl]-amine] the same measures were 0.3 to 3 µM and under 0.3 µM.
